This is an account of results in patent publication US4931498A, “Immobilized artificial membranes” (Purdue Research Foundation, priority 1988, dated 1990).

A short description of data set [1]: HPLC elution on Nucleosil-lecithin (immobilized artificial membrane) column. In kind it is physicochemical. Also on record: Elution times: unit not given beside the values. The note with it: for Elution times: Nucleosil-lecithin column, mobile phase isotonic buffered saline at 1.0 ml/min, detection at 260 nm; for Elution Volumes on Nucleosil-Lecithin, Mobile Phase 0.1% TFA: peptides dissolved in 0.1% aqueous TFA; for Elution Volumes on Nucleosil-Lecithin, Mobile Phase 0.1% TFA / Elution Volumes on Nucleosil-Lecithin, Mobile Phase PBS: detection 220 nm; for Elution Volumes on Nucleosil-Lecithin, Mobile Phase PBS: mobile phase isotonic phosphate buffered saline (pH 7.34). On the procedure:
A 4 mm×100 mm HPLC column was packed with about one gram of Nucleosil-lecithin (pooled from several preparations above) using a Shandon column packer. Excess Nucleosil-lecithin (1.45 grams) was suspended in 15 ml of degassed methanol and then sonicated 5 minutes to assure particle dispersion. The dispersion was transferred to the 30-ml slurry reservoir on the column packer, and 15 ml of degassed methanol was added to fill the reservoir. The column was packed at 4500 psi.
The HPLC elution properties of the Nucleosil-lecithin column were evaluated.
Separation of 2-deoxycytidine (C), 2-deoxyuridine (U), 2'-deoxyguanosine (G) and 2'-deoxyadenosine (A) was effected using isotonic buffered saline as the mobile phase at 1.0 ml/min with detection at 260 nm. Elution times were as follows: C - 1.175; U - 1.465; G - 1.730; and A - 2.090.
FIG. 11 is a chromatogram for a mixture of Peptides I and II, dissolved in 0.1% aqueous trifluoracetic acid (TFA) and detected at 220 nm. In FIG. 11 the mobile phase was isotonic phosphate buffered saline (pH 7.34). FIG. 12 is a chromatogram for a mixture of Peptides III and IV, dissolved in 0.1% aqueous trifluoracetic acid (TFA) and detected at 220 nm. In FIG. 12 the mobile phase was 0.1% TFA.

Data set [2] can be described thus: HPLC elution on cholesterol-loaded Nucleosil-lecithin column. To be noted: for Elution Volumes by Mobile Phase, H2O: mobile phase water. It is filed as physicochemical. On the procedure:
The Nucleosil-lecithin chromatography support material was then "loaded" with cholesterol in situ using the following procedure.
A solution of 80 ml of 1 mg/ml cholesterol in MeOH:isopropanol/8:2 was pumped through the Nucleosil-lecithin using a Bendex pump. […] Approximately […] was recovered in the effluent showing that 40 mg of cholesterol was loaded onto the Nucleosil-lecithin column. This is approximately 50% by weight of the bonded phase. The Nucleosil-lecithin/cholesterol column containing MeOH/isopropanol was attached to the HPLC and eluted with water (approximately 100 ml). The mobile phase was changed to 0.1% TFA and peptides dissolved in 0.1% TFA were injected to determine the elution volumes. The mobile phase was changed to water and the peptides were reinjected after the column was equilibrated with 100 ml of water to determine the elution volumes. The column was washed with PBS buffer (100 ml) and the peptides were again injected to determine elution volumes using PBS as the mobile phase.

Square brackets hold non-standard residues; d marks the D form. Ends that are not written are not given here. Peptide text beside a SMILES is read from it.

With `O=c1ccn([C@H]2C[C@H](O)[C@@H](CO)O2)c(=O)[nH]1` [2-deoxyuridine], the Elution times in data set [1] came out at 1.465.
On to `CSCC[C@@H](N)C(=O)N1CCC[C@@H]1C(=O)N[C@H](CO)C(=O)N[C@H](Cc1c[nH]c2ccccc12)C(=O)N[C@@H](C(=O)NCC(=O)NCC(=O)N[C@H](CS)C(=O)O)[C@H](C)O` [Peptide VIII, NH2 d,M-d,P-d,S-d,W-d,T-G-G-d,C--COOH] (H-[dM][dP][dS][dW][dT]GG[dC]-OH), for which, in data set [2], the “Elution Volumes by Mobile Phase, 0.1% TFA” value came to 5.0; the “Elution Volumes by Mobile Phase, PBS” value amounted to 6.5; the “Elution Volumes by Mobile Phase, H2O” value is reported as 3.0.
With “YGSTWPGC [Peptide I, NH2 Y-G-S-T-W-P-G-C--COOH]”, in data set [2], the “Elution Volumes by Mobile Phase, 0.1% TFA” value was 5.3; the “Elution Volumes by Mobile Phase, PBS” value came to 7.9; the “Elution Volumes by Mobile Phase, H2O” value worked out at 7.3. Also, in data set [1], the “Elution Volumes on Nucleosil-Lecithin, Mobile Phase 0.1% TFA” value (“Elution Volumes … Mobile Phase 0.1% TFA” for short) is on record as 7.3 and the “Elution Volumes on Nucleosil-Lecithin, Mobile Phase PBS” value (from here on “Elution Volumes … Mobile Phase PBS”) is given as 13.1.
The molecule `Nc1ncnc2c1ncn2[C@H]1C[C@H](O)[C@@H](CO)O1` [2'-deoxyadenosine] registered an Elution times in data set [1] of 2.090.
Consider “Ac-HIFNQ-NH2 [Peptide VII, NacH-I-F-N-QNH2]”, for which, in data set [2], the “Elution Volumes by Mobile Phase, 0.1% TFA” value is 1.3; the “Elution Volumes by Mobile Phase, PBS” value worked out at 3.2; the “Elution Volumes by Mobile Phase, H2O” value was 0.8. Besides, the “Elution Volumes … Mobile Phase PBS” value in data set [1] was 3.8.
On to “MPSWTGG [Peptide IV, NH2 M-P-S-W-T-G-G-COOH]”, for which, in data set [2], the “Elution Volumes by Mobile Phase, 0.1% TFA” value stood at 2.9; the “Elution Volumes by Mobile Phase, PBS” value was 5.0; the “Elution Volumes by Mobile Phase, H2O” value amounted to 4.9. In data set [1], the “Elution Volumes … Mobile Phase 0.1% TFA” value worked out at 4.1 and the “Elution Volumes … Mobile Phase PBS” value is reported as 4.2.
For “YGSTWPG [Peptide II, NH2 Y-G-S-T-W-P-G-COOH]”, in that order: 2.7, 4.8, 6.6, 3.1 and 7.6.
For “HIFNQ-NH2 [Peptide VI, NH2 H-I-F-N-QNH2]”, in data set [2], the “Elution Volumes by Mobile Phase, 0.1% TFA” value worked out at 1.0; the “Elution Volumes by Mobile Phase, PBS” value turned out to be 4.2; the “Elution Volumes by Mobile Phase, H2O” value is recorded as 0.8. Moreover, the “Elution Volumes … Mobile Phase PBS” value in data set [1] came out at 5.8.
For the molecule “MPSWTGGC [Peptide III, NH2 M-P-S-W-T-G-G-C--COOH]”, in data set [2], the “Elution Volumes by Mobile Phase, 0.1% TFA” value was 5.3; the “Elution Volumes by Mobile Phase, PBS” value is reported as 6.9; the “Elution Volumes by Mobile Phase, H2O” value came to 9.2. Also, in data set [1], the “Elution Volumes … Mobile Phase 0.1% TFA” value was 9.4 and the “Elution Volumes … Mobile Phase PBS” value is reported as 10.0.
`Nc1ccn([C@H]2C[C@H](O)[C@@H](CO)O2)c(=O)n1` [2-deoxycytidine] displayed an Elution times in data set [1] of 1.175.
On to “CGYGSTWP [Peptide V, NH2 C-G-Y-G-S-T-W-P--COOH]”, for which the “Elution Volumes by Mobile Phase, 0.1% TFA” value in data set [2] worked out at 6.6.
In data set [1], `Nc1nc2c(ncn2[C@H]2C[C@H](O)[C@@H](CO)O2)c(=O)[nH]1` [2'-deoxyguanosine] gave an Elution times of 1.730.
